Structures can show the parent of a compound that is named as a salt.
Columns and labels:
[1] = test system: collagen-specific antibodies; test: Anti-CII antibody levels in serum of arthritic mice (ELISA); format: in vivo, mouse; conditions: intragastric, FIG. 4
Experimental: Normal group, model group, positive medicament (1 mg/kg dexamethasone) group, naphthoquine phosphate (25, 50, 100 mg/kg) groups, hydroxychloroquine sulfate (100 mg/kg) group.
10 mg of Type II Collagen (CII) was swollen in 2.5 ml of 0.1 mol/L glacial acetic acid to prepare a 4 mg/ml CII solution. This solution was fully emulsified with an equal volume of CFA, and injected subcutaneously (50 μl) at the base of the tail of mice. After 21 days, 4 mg/ml CII solution was fully emulsified with an equal volume of IFA. This mixture was injected subcutaneously (50 μL) at the base of the tail of mice to boost the immune response.
50 μl CII solution (final concentration: 50 μg/ml) was added to each well of a 96-well ELISA plate for coating overnight. The plate was washed 4 times with 200 μl washing solution (1L PBS+500 μl Tween 20) per well. 100 μl 1% BSA was added to each well to block for 1 hour. The plate was then washed 4 times with 200 μl washing solution per well. 50 μl diluted serum samples from each group of mice were added to each well and incubated for 2 hours. The plate was washed 4 times with 200 μl washing solution per well. Horseradish Peroxidase (HRP)-conjugated IgG secondary antibody was added and incubated for 1 hour. […] Absorbance values at 450 nm/570 nm were read by a microplate reader (Spectra Max 190, Molecular Devices).

[2] = test system: adjuvant-induced arthritis in rats; test: Adjuvant-induced arthritis in rats: arthritis scoring and foot swelling; format: in vivo, rat; conditions: FIG. 7
anti-dsDNA antibodies = test: Anti-double-stranded DNA antibodies in serum of MRL/lpr mice (ELISA); format: in vivo, mouse; conditions: intragastric 25, 50 mg/kg, FIG. 8
Experimental: (§1) Normal group, model group, positive medicament (1 mg/kg prednisone) group, naphthoquine phosphate (25, 50 mg/kg) group, hydroxychloroquine sulfate (100 mg/kg) group.
50 μl double-stranded DNA solution (final concentration: 50 μg/ml) was added to each well of a 96-well ELISA plate for coating overnight. The plate was washed 4 times with 200 μl washing solution (1L PBS+500 μl Tween 20) per well. 100 μl 1% BSA was added to each well and blocked for 1 hour. The plate was washed 4 times with 200 μl washing solution per well. 50 μl diluted mouse serum samples of each group were added to each well and incubated for 2 hours. The plate was washed 4 times with 200 μl washing solution per well. Horseradish peroxidase (HRP)-conjugated IgG (H+L) secondary antibodies were added and incubated for 1 hour. The plate was washed 5 times with 200 μl washing solution per well. 50 μl tetramethylbenzidine (TMB) substrate was added, and 30 μl 1M sulfuric acid solution was added to terminate color development based on the condition of color development. Absorbance values at 450 nm/570 nm were read by a microplate reader (Spectra Max 190, Molecular Devices).
At the end of the experiment, eyeballs were removed to collect blood. ELISA method was used to detect the levels of anti-dsDNA antibodies in serum of experimental mice, and the anti-nuclear antibody kit was used to detect the levels of anti-nuclear antibodies. […]

anti-nuclear antibodies = test: Anti-nuclear antibodies in serum of MRL/lpr mice (ANA kit); format: in vivo, mouse; conditions: intragastric 25, 50 mg/kg, FIG. 8
Experimental: as §1
At the end of the experiment, eyeballs were removed to collect blood. ELISA method was used to detect the levels of anti-dsDNA antibodies in serum of experimental mice, and the anti-nuclear antibody kit was used to detect the levels of anti-nuclear antibodies. […] (Note: * P value<0.05, ** P value<0.01, *** P value<0.001, compared with model group.)

mouse spleen lymphocytes = test: Non-specific cytotoxicity assay (MTT), mouse spleen lymphocytes; format: cell-based; conditions: mouse whole spleen lymphocytes, 48 hours, listed as Hydroxychloroquine Sulfate (Zhongxi Sunve)
Experimental: BALB/c mice were sacrificed by cervical dislocation, and spleens were aseptically excised to prepare whole spleen lymphocytes. The cells were adjusted to the required concentration. The compound concentrations started at 250 μM and was diluted with a 4-fold gradient to obtain 10 concentrations: 250, 62.5, 15.625, 3.906, 0.977, 0.244, 0.061, 0.015, 0.004 and 0.001 μM.
A suspension of mouse spleen lymphocytes was inoculated into a 96-well plate at 8×10^5/well, and the above 10 concentration gradients of the compound were added. A corresponding cell control (i.e. spleen lymphocyte culture system without compound) and a RPMI 1640 culture medium background control (blank culture medium control) were set up. The cells were cultured in a 37° C., 5% CO2 incubator for 48 hours. Four hours before the end of the culture, 20 μl of 5 mg/ml MTT solution was added, and the reaction continued until the end of the culture (i.e. the aforementioned 48 hours). The supernatant was aspirated and discarded, 200 μl DMSO was added to each well to dissolve the crystals. […]. The absorbance value was measured at […] with a microplate reader (Spectra Max 190, Molecular Devices).

In the case of `CC(C)(C)NCc1cc(Nc2ccnc3cc(Cl)ccc23)c2c(c1O)CCCC2.O=P(O)(O)O.O=P(O)(O)O` [Naphthoquine Phosphate, Naphthoquine phosphate], the “levels of collagen-specific antibodies in serum of arthritic mice” value [1] is reported as “reduce”, the “clinical arthritis scores of the experimental rats” value ([2]; intragastric 25, 50, 100 mg/kg) is reported as “improved” and the “extent of foot swelling in rats” value ([2]; intragastric 25, 50, 100 mg/kg) is reported as “inhibited”. The “therapeutic effect in arthritic rats compared with hydroxychloroquine sulfate” value ([2]; same dose (100 mg/kg)) was “superior to that of hydroxychloroquine sulfate at the same dose”, the “levels of anti-dsDNA antibodies in serum” value (anti-dsDNA antibodies) was “significantly reduced” and the “levels of anti-nuclear antibodies in serum” value (anti-nuclear antibodies) was “significantly reduced”.
`CCN(CCO)CCCC(C)Nc1ccnc2cc(Cl)ccc12` (stereo not shown) [Hydroxychloroquine Sulfate, hydroxychloroquine sulfate] was tested, and the CC50 (mouse spleen lymphocytes) was 25.2 µM.

From patent publication US20250332154A1, “USE OF NAPHTHOQUINE PHOSPHATE IN PREPARATION OF A MEDICAMENT FOR TREATING AUTOIMMUNE DISEASES” (SHANGHAI PHARMACEUTICALS INDUSTRY CO., LTD, priority 2022, published 2025)
